Measurements published in US20230398077A1, “SILICASOME NANOCARRIER FOR METAL-BASED DRUG DELIVERY” (The Regents of the University of California, priority 2020, published 2023).

What was measured:
[1] = Pt drug loading of MSNP/silicasome (EE %, LC %) by ICP-MS/ICP-OES; type: physicochemical; details: DACHPt incubated with bare MSNP, Pt:MSNP 1:5 w/w
Protocol: In various embodiments the silica nanoparticles are loaded with platinum-based drugs using a combination of coordination and electrostatic interactions. Since the silanol group density on the silica nanoparticle surface(s) (e.g., pore surfaces) an important role in the surface binding of the activated platinum compound (e.g., DACHPt) (see FIG. 2), it is desirable to control the pH during drug loading. Thus, the loading efficiency and capacity was optimized through control of. pH, incubation time, the soaking process, and variation of the drug/particle ratio, etc. Thus, for example, 20 mg MSNP resuspend in 1 mL HEPES buffer (0.1 M, pH 8.5) was mixed with DACHPt complex (4 mg Pt, equal to 8 mg OX). The mixture was sonicated in water bath sonication for 10 mins and then spun down at 15 K rpm for 10 mins. Non-bound Pt in the supernatant, as detected by ICP-OES was used to determine the loading capacity [%=(total Pt—Pt in supernatant)/amount of MSNP*100} and loading efficiency [%=(total Pt—Pt in supernatant)/total Pt*100].
Sixty-five nm bare MSNPs were synthesized at 18 L scale and purified by extensive acidic ethanol washing to remove the CTAC detergent, as reported previously^[4b]. In order to determine the optimal loading condition, we experimented with multiple rounds of drug loading to find the optimal pH, incubation time, sonication condition, and particle/drug feed ratio, etc. Details of the protocol optimization appear online (FIG. 8). In the case of DACHPt loading, purified MSNP (20 mg) from ethanol stock solution was spun at 15,000 rpm for 15 min, and resuspend in 1 mL HEPES buffer (200 mM, pH 8.5). The MSNP suspension was spun down and resuspend in 0.5 mL HEPES buffer (200 mM, pH 8.5). Then, 160 μL DACHPt solution (25 mg/mL, e.q. Pt) and 340 μL pure H2O were added to the MNSP suspension (40 mg/mL, 0.5 mL). The mixture was sonicated for 10 min. In a sonication water bath. The DACHPt-laden MSNPs were spun down at 15,000 rpm for 12 min, followed by collecting the supernatant for Pt elemental analysis by ICP-MS. […]

calreticulin (CRT) = experiment: Surface CRT expression in KPC cells (immunofluorescence, flow cytometry); type: cell-based, murine; details: 500 μM, 24 h
Protocol: Surface CRT expression was visualized by immunofluorescence (IF) staining using an anti-CRT primary antibody, followed by the incubation with Alex488 conjugated secondary antibody. Briefly, ˜1.5×10^4 KPC cells were seeded into an 8-well confocal chamber slide. After 24 h, the cell culture medium was replaced with fresh medium containing the chemo agents, following which the cells were incubated for another 24 h. The cells were washed twice in cold PBS and fixed with 4% paraformaldehyde (PFA) at room temperature (r.t.) for 15 mins. After fixation, the cells were washed twice with cold PBS and blocked with 1% BSA in PBS for 0.5 h. The cells were incubated with anti-CRT primary antibody (ab2907, 1:200) in 200 μL blocking solution at 4° C. overnight, followed by washing with PBS and staining with secondary antibody (Alex488 conjugated goat anti-rabbit secondary antibody, A-11008, 1:1000) together with the nuclear dye, Hoechst 33342, at r.t. for 1 h. The cells were washed with PBS, then imaged by using a Leica SP8-MD confocal microscope under the 100× objective lens.
Surface CRT expression was measured by flow cytometry as previously described^[24a]. Briefly, 7.5×10^4 KPC cells were seeded into 24-well plates. […] After washing in cold PBS, the cells were assessed in a LSRII flow cytometer (BD Biosciences). […]

HMGB1 = HMGB1 release from KPC cells (ELISA); type: cell-based, murine; details: 500 μM, 24 h
Protocol: Surface CRT expression was measured by flow cytometry as previously described^[24a]. Briefly, 7.5×10^4 KPC cells were seeded into 24-well plates. After cell attachment, KPC cells were treated with free oxaliplatin and DACHPt (500 μM), for 24 h. The loosely attached cells were combined with trypsin-treated at adherent cells. The cells were washed in cold PBS and then stained on ice with a primary anti-CRT antibody (Abcam, ab2907, 1:140) in 200 μL BD staining buffer for 0.5 h. The cells were washed in cold PBS and stained with an […] secondary antibody (LifeScience Technologies #A21244) for 30 min on ice. After washing in cold PBS, the cells were assessed in a LSRII flow cytometer (BD Biosciences). In the same experiment, the cell culture media were spun down to collect the supernatants for HMGB1 detection by an ELISA kit (Catalog #ST51011, IBL International GmbH), according to the manufacture's instruction.

KPC cells [2] = experiment: Vaccination study with chemo-induced dying KPC cells, re-challenge on contralateral side; details: for infiltration by CD8^+ T-cells / number of Foxp3^+ regulatory T cell (Treg) / increase in CD8^+/Tregs cell ratio compared to PBS control: IHC of contralateral tumors; for increase in CD8^+/Tregs cell ratio compared to PBS control: day 26; for tumor growth on the contralateral side: vaccination with drug-treated dying KPC cells, p<0.05
Protocol: In order to determine whether these in vitro ICD markers actually represent an in vivo immunogenic effect as specified by a consensus ICD document^[26], we also performed a vaccination study in a syngeneic KPC animal model. Suspensions of dying tumor cells, generated by oxaliplatin or DACHPt treatment for 24 h, were subcutaneously injected on 2 occasions (7 days apart) in left flank of immunocompetent B6129SF1/J mice. This was followed by tumor re-challenge on the contralateral side using untreated KPC cells (FIG. 4, panel C).
Moreover, we also validated the ICD effect of DACHPt in a vaccination experiment, using a published protocol^[26]. Briefly, eight million KPC cells were seeded in a tissue culture dish. After cellular attachment, DACHPt or free oxaliplatin (500 μM) were added for 24 h. Cells were collected and washed before being resuspended in 0.8 mL cold PBS. For vaccination, each mouse received subcutaneous injection (SC) of a 100 μL suspension of chemo-treated cells in the right flank. Control animals received PBS only. The vaccination was repeated after 7 days. Fourteen days after the 1st vaccination, the same mice received the SC injection of healthy KPC cells (1×10^6 cells) in the contralateral side. Tumor growth was measured by a digital caliper every 2-3 days. At the conclusion of the vaccination experiment (Day 26), animals were sacrificed and the tumors collected for IHC immunophenotyping of CD8^+ T cells and FoxP3^+ Treg cells. Primary antibodies to CD8 (#14-0808-82, 1:100) and FoxP3 (#13-5773-82, 1:200) were purchased from ThermoFisher. […] The slides were scanned and images were assessed by using Aperio ImageScope software (Leica).

orthotopic KPC tumor [3] = experiment: Anti-PDAC efficacy in orthotopic KPC model; type: in vivo, B6129SF1/J mice; details: Pt 2 mg/kg IV every 3 days, 3 administrations, day 17
Protocol: An efficacy study was performed by IV injection of the silicasome carrier eight days after orthotopic KPC implantation in the pancreas of B6129SF1/J mice (FIG. 3, panel D). This corresponds to beginning the treatment at a primary tumor size of 5-10 mm in the absence of macro-metastases^[21]. IV injections were repeated every 3 days for a total of 3 repeats. The control groups included animals receiving IV saline or free oxaliplatin. The tumor growth at the primary and metastatic sites was followed by IVIS bioluminescence imaging up to conclusion of the experiment on day 17 (FIG. 3, panel D, right).
KPC-luc cells (˜1×10^6) were orthotopically injected into the pancreas in mice. […] The control includes saline as well as free oxaliplatin. This dose arrangement is in agreement with the literature^[27]. Tumor-bearing mice received IV injection of the indicated therapy every 3 days for a total of 3 administrations. Before animal sacrifice (72 h post the last IV injection), the mice received intraperitoneal injection of D-luciferin, followed by ex vivo bioluminescence imaging using an IVIS imaging system. […] The H&E slides for toxicity assessment were read in a blinded fashion by an experienced veterinary pathologist.

[4] = PK study, plasma Pt by ICP-MS after single IV injection; details: Pt dose 4.95 mg/kg, one-compartment model
Protocol: IV injection of non-encapsulated oxaliplatin (at identical Pt molar dose) served as the free drug control because free DACHPt leads to drug precipitates when interacting with Cl ions in the blood^[7b]. Blood collection was performed at 5 mins, 3 h, 6 h, 24 h and 48 h after IV injection, followed by ICP-MS quantification.
The PK study was performed on 10-12-week-old healthy female B6129SF1/J mice. […] After separation of the plasma fraction, the plasma samples were digested with HCl:HNO3 3:1, v/v) in a hot-block, before replenishment in 2% HNO3 for ICP-MS analysis of the Pt content. The PK data were analyzed by PKSolver software, using a one-compartment model^[4].

orthotopic KPC tumor [5] = experiment: Survival study in orthotopic KPC model w/wo anti-PD-1; type: in vivo, mice; details: agent alone; Pt 2 mg/kg IV, anti-PD-1 100 μg IP; Kaplan-Meier, Log Rank
Protocol: Kaplan-Meier plots were used to display the survival rate of the different animal groups (n=5-7, *p<0.05, Log Rank test).
Tumor-bearing mice were randomly assigned into 6 groups (n=5-7) and received IV injection of Pt drug formulations twice per week as designed in FIG. 6. Anti-PD-1 antibody was injected at 100 μg/animal intraperitoneally two days later after each Pt chemo injection. To assess survival rate, animals were monitored daily up to the stage of spontaneous death or approaching moribund status based on the criteria of extensive abdominal ascites, severe dehydration, significant weight loss (>20%), extreme weakness or inactivity^[4, 21, 30] The survival data were plotted as Kaplan-Meier curves, followed by statistical analysis by Log Rank testing (Mantel-Cox), using GraphPad Prism 7.00 software.

[6] = Safety assessment by H&E histology of bone marrow and major organs (efficacy study)
Protocol: KPC-luc cells (˜1×10^6) were orthotopically injected into the pancreas in mice. […] The control includes saline as well as free oxaliplatin. […] Tumor-bearing mice received IV injection of the indicated therapy every 3 days for a total of 3 administrations. Before animal sacrifice (72 h post the last IV injection), the mice received intraperitoneal injection of D-luciferin, followed by ex vivo bioluminescence imaging using an IVIS imaging system. Primary tumor and major organs (e.g. sternum, heart, liver, spleen, lung and kidneys) were harvested and fixed in 10% formalin, followed by paraffin embedding and sectioning to provide 4 μm slices for histological analysis in the UCLA Translational Pathology Core Laboratory (TPCL). H&E staining was performed to look at the pathological abnormality in mice receiving different treatments. The H&E slides for toxicity assessment were read in a blinded fashion by an experienced veterinary pathologist.

KPC cells [7] = experiment: Cytotoxicity MTS assay in KPC cells; details: 500 μM, 24 h
Protocol: The DACHPt silicasome was tested in a list of cancer cell lines to determine the in vitro killing effect, using a MTS assay. […] The MTS assay was conducted with free DACHPt and oxaliplatin as controls. Data are expressed as mean±SD. n=3.
The MTS assay was performed at 24 h after the treatment with oxaliplatin or DACHPt in KPC cells. Data represents mean±SD, n=3.
Cytotoxicity testing of free Pt drugs or drug-laden silicasomes was performed by using a standard MTS assay (CellTiter 96© AQueous One Solution Cell Proliferation Assay, Promega). PDAC cells were plated at a density of 5×10^3 cells per well in a 96-well plate and cultured for 24 h before the medium was replaced with fresh medium containing free OX, free DACHPt or DACHPt laden silicasome at indicated concentrations. Non-treated cells were used as control. After treatment for 48 h, the medium was replaced with 100 μL of fresh medium containing MTS solution (5:1, v/v medium/CellTiter 96© Aqueous stock solution), and the cells were further cultured at 37° C. for 1 h. The absorbance of the culture wells at 490 nm was recorded by a microplate reader (M5e, Molecular Device, USA). Wells receiving the MTS solution without cells were used as blank. The relative cell viability (%) is [(the absorption of treated well−blank)/(the absorption of control well−blank)]×100%.

encapsulation efficiency (EE %) ([1]; neutral pH 7.4) [%] | encapsulation efficiency (EE %) ([1]; pH 8.5, before lipid coating) [%] | encapsulation efficiency (EE %) ([1]; weak acidic pH 5.5) [%] | SMILES | cell surface fluorescence of CRT (calreticulin (CRT)) | HMGB1 release into the supernatant (HMGB1) | infiltration by CD8^+ T-cells (KPC cells [2]) | number of Foxp3^+ regulatory T cell (Treg) (KPC cells [2]) | increase in CD8^+/Tregs cell ratio compared to PBS control (KPC cells [2]) [fold] | tumor free mice (out of 6) (KPC cells [2]; vaccination study) | tumor growth on the contralateral side (KPC cells [2]) | tumor inhibition (primary tumor weight) (orthotopic KPC tumor [3]) [%] | circulatory half-life (t1/2) [4] [min] | survival outcome (orthotopic KPC tumor [5]) | histology of major organs (liver, spleen, kidney, lung, heart) [6] | reduction in cellularity of the hemopoetic cells in the bone marrow [6] [%] | killing of cells / compromised cell viability (MTS) (KPC cells [7]) [%]
60 | ~75 | 25 | NC1CCCCC1N.[Pt+2] (stereo not shown) [DACHPt, (1,2-diaminocyclohexane)platinum(II)] | significant increase | increase of released HMGB1 | increase in infiltration | reduced number | 6 | 1 | growth retardation | – | – | – | – | – | –
– | – | – | O=C1[O][Pt]2([NH][C@@H]3CCCC[C@H]3[NH]2)[O]C1=O [oxaliplatin] | significant increase | increase of released HMGB1 | increase in infiltration | reduced number | 4.8 | – | growth retardation | ~5 | 21 ± 10.2 | No obvious benefit | No major histological abnormalities | > 50 | 70
